In the supplement of paper PMC4858399:
Counter-ions that a name gives are not always drawn.

How the values were obtained:
Settings in all cases: exposure time 48 h
[1] = tested on: Caenorhabditis elegans N2; assay: lowest effective concentration for larval growth inhibition (size below effect threshold); higher = less potent
In short: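 Worm size was taken as per-worm extinction on the Biosort, log-transformed and turned into well means. The larvae (C. elegans N2, L1 stage, 50 per 96-well) had spent 48 h at 20°C in K-medium with killed bacteria, 1% DMSO and 0.5, 1, 5, 10, 50, 100 or 200 µM chemical. The lowest effective concentration marks the first dose where the plate-adjusted mean size drops under a cutoff and remains under it at every higher dose; the cutoff is 5.665.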

[2] = tested on: Caenorhabditis elegans N2; assay: AC50 for larval growth inhibition (Hill fit); higher = less potent
In short: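 Synchronised C. elegans N2 L1 larvae (50 per well, 96-well plates) were grown for 48 h at 20°C in K-medium with killed OP50, 1% DMSO and 0.5–200 µM chemical. The COPAS Biosort measured each worm's size as extinction, which was log-transformed and averaged per well. AC50 came from a constrained Hill fit by weighted genetic-algorithm regression on wells with at least 10 worms. Out-of-range values are censored.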

[3] = tested on: Caenorhabditis elegans N2; assay: mean nematode size ln(EXT) after 48 h, plate-adjusted (DMSO control set to 6) (ln(EXT), control-adjusted); higher = larger nematodes / less growth inhibition
In short: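 C. elegans N2 larvae, synchronised at L1, grew for 48 h at 20°C in K-medium with killed OP50, 1% DMSO and 0.5–200 µM chemical. Mean size per well was derived from natural-logged Biosort extinction after a growth model removed debris. Adjustment across plates involved subtracting the vehicle control mean and adding 6.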

| Structure (SMILES) | lowest effective concentration [1] | AC50 for larval growth inhibition [2] | mean nematode size ln(EXT) (ln) ([3]; 0.5 µM) | mean nematode size ln(EXT) (ln) ([3]; 1 µM) | mean nematode size ln(EXT) (ln) ([3]; 5 µM) | mean nematode size ln(EXT) (ln) ([3]; 10 µM) | mean nematode size ln(EXT) (ln) ([3]; 50 µM) | mean nematode size ln(EXT) (ln) ([3]; 100 µM) | mean nematode size ln(EXT) (ln) ([3]; 200 µM) |
| --- | --- | --- | --- | --- | --- | --- | --- | --- | --- |
| O=[N+]([O-])C(Br)(CO)CO [Bronopol] | 50 µM | > 200 µM | 5.88 | 5.93 | 5.93 | 5.84 | 5.65 | 5.56 | 4.95 |
| CCc1nn(C2CCCCC2)c2cc(C3(C#N)CCC(C(=O)O)CC3)ccc12 (stereo not drawn) | 200 µM | > 200 µM | 5.91 | 5.88 | 5.86 | 5.93 | 5.81 | 5.67 | 5.45 |
| CC(C)NC(=O)N1CC(=O)N(c2cc(Cl)cc(Cl)c2)C1=O [Iprodione] | 200 µM | > 200 µM | 5.99 | 5.95 | 5.85 | 6.06 | 5.87 | 5.8 | 5.4 |
| CCOC(=O)O[C@H](C)OC(=O)c1ccc2c(c1)cc(C(=O)NC1CCN(C(C)C)CC1)n2Cc1cc(-c2ccc(Cl)s2)on1 | 50 µM | 78.2 µM | 5.85 | 5.86 | 5.87 | 5.76 | 4.76 | 4.59 | 3.71 |
| O=C(Nc1ccccc1-c1ccc(Cl)cc1)c1cccnc1Cl [Boscalid] | 50 µM | 9.83 µM | 6.09 | 6 | 5.75 | 5.68 | 4.94 | 5.21 | 5.39 |
| COS(=O)(=O)OC [Dimethyl sulfate] | 100 µM | 61.5 µM | 5.83 | 5.97 | 6.03 | 5.92 | 5.98 | 5.28 | 5.61 |
| CC/C(=C(\c1ccccc1)c1ccc(OCCN(C)C)cc1)c1ccccc1 [Tamoxifen citrate salt] | 10 µM | 10.9 µM | 5.96 | 6 | 5.82 | 5.01 | 3.9 | 3.68 |  |
| CNC(=S)S [Metam-sodium hydrate] | 200 µM | 191 µM | 6.25 | 6.2 | 6.21 | 6.3 | 6.43 | 6.13 | 5.52 |
| Nc1ccc(Cc2ccc(N)cc2)cc1 [4,4'-Methylenedianiline] | 200 µM | > 200 µM | 5.98 | 5.73 | 5.91 | 5.78 | 5.87 | 5.92 | 5.53 |
| CCCCC(CC)COC(=O)CCCCC(=O)OCC(CC)CCCC (stereo not drawn) [Di(2-ethylhexyl)adipate] | 200 µM | > 200 µM | 5.87 | 5.8 | 5.73 | 5.76 | 5.75 | 5.82 | 5.55 |
| COC(=O)c1c(Cl)c(Cl)c(C(=O)OC)c(Cl)c1Cl [Chlorthal-dimethyl] | 100 µM | > 200 µM | 5.89 | 5.95 | 5.78 | 5.83 | 5.75 | 5.56 | 5.42 |
| CC1(C)CC(N=C=O)CC(C)(CN=C=O)C1 (mixture of isomers) [Isophorone diisocyanate, mixture of isomers] | 100 µM | > 200 µM | 5.94 | 5.89 | 5.97 | 5.71 | 5.76 | 5.37 | 4.55 |
| CCCOc1sc(C(=O)N2CCC(c3cc(CN)ccc3F)CC2)c(C)c1Br | 5 µM | 9.86 µM | 5.68 | 5.67 | 5.54 | 4.86 | 3.73 | 3.92 |  |
| CC(C)(C)c1ccc(O)c(C(C)(C)C)c1 [2,4-Di-tert-butylphenol] | 50 µM | 186 µM | 5.97 | 5.97 | 5.99 | 5.88 | 5.62 | 5.5 | 4.45 |
| O=C(O)C1(c2ccc3c(c2)OC[C@H](Cc2ccc(-c4ccccc4)cc2)[C@H]3O)CCCC1 | 50 µM | 52.8 µM | 5.91 | 5.83 | 5.77 | 5.9 | 5.16 | 4.25 | 4.18 |
| CCOc1ccc2[nH]cc(C(=O)NCc3ccccc3)c(=O)c2n1 | 200 µM | > 200 µM | 5.85 | 5.84 | 5.84 | 5.96 | 5.91 | 5.86 | 5.63 |
| CCOC(=O)C(C)OC(=O)c1cc(Oc2ccc(C(F)(F)F)cc2Cl)ccc1[N+](=O)[O-] (stereo not drawn) [Lactofen] | 50 µM | 138 µM | 5.89 | 5.94 | 5.8 | 5.86 | 5.24 | 5.25 | 4.89 |
| O=C(Nc1ccccc1)c1ccccc1I [Benodanil] | 5 µM | 39.3 µM | 5.99 | 5.98 | 5.62 | 5.66 | 4.16 | 4.19 | 3.37 |
| N#Cc1c(Cl)cccc1Cl [Dichlobenil] | 200 µM | > 200 µM | 5.93 | 5.79 | 6.11 | 5.95 | 5.9 | 6.01 | 5.54 |
| Clc1ccc(C(c2ccc(Cl)cc2)C(Cl)Cl)cc1 [p,p'-DDD] | ≤ 0.5 µM | 1.88 µM | 5.59 | 5.57 | 3.62 | 3.7 | 3.68 | 3.57 | 3.14 |
| Cn1cnc([N+](=O)[O-])c1Sc1ncnc2[nH]cnc12 [Azathioprine] | 200 µM | > 200 µM | 5.89 | 5.89 | 5.93 | 5.86 | 5.89 | 5.84 | 5.36 |
| O=Cc1ccccc1C=O [1,2-Benzenedicarboxaldehyde] | 50 µM | 62 µM | 5.83 | 5.92 | 5.82 | 5.93 | 5.24 | 4.04 | 3.73 |
| CCOC(=O)c1ccc(C2CCC(NC[C@H](O)COc3ccc(O)c(NS(C)(=O)=O)c3)CC2)cc1 (stereo partly drawn) | 100 µM | > 200 µM | 5.91 | 5.88 | 5.77 | 5.77 | 5.7 | 5.57 | 5.48 |

| Structure (SMILES) | lowest effective concentration [1] | AC50 for larval growth inhibition [2] | mean nematode size ln(EXT) (ln) ([3]; 0.5 µM) | mean nematode size ln(EXT) (ln) ([3]; 1 µM) | mean nematode size ln(EXT) (ln) ([3]; 5 µM) | mean nematode size ln(EXT) (ln) ([3]; 10 µM) | mean nematode size ln(EXT) (ln) ([3]; 50 µM) | mean nematode size ln(EXT) (ln) ([3]; 100 µM) | mean nematode size ln(EXT) (ln) ([3]; 200 µM) |
| --- | --- | --- | --- | --- | --- | --- | --- | --- | --- |
| CCCCOCN(C(=O)CCl)c1c(CC)cccc1CC [Butachlor] | 200 µM | 13.8 µM | 5.93 | 6.1 | 6.07 | 6.12 | 6.05 | 6.08 | 5.44 |
| COc1nn(CSP(=S)(OC)OC)c(=O)s1 [Methidathion] | 1 µM | > 200 µM | 5.74 | 5.62 | 5.48 | 5.52 | 5.57 | 5.38 | 4.52 |
| ClC(Cl)(Cl)c1ccccc1 [Benzotrichloride] | 200 µM | > 200 µM | 5.84 | 5.87 | 5.73 | 5.82 | 5.78 | 5.75 | 4.93 |
| Nc1ccc(Nc2ccccc2)cc1 [N-Phenyl-1,4-benzenediamine] | 50 µM | 71.8 µM | 5.84 | 5.84 | 5.76 | 5.72 | 5.43 | 5.15 | 5.25 |
| CSc1ccc(Oc2ccc(S(N)(=O)=O)cc2CN(C)C)cc1C | 200 µM | > 200 µM | 5.74 | 5.87 | 5.86 | 5.84 | 5.83 | 5.69 | 5.17 |
| CCNP(=S)(OC)O/C(C)=C/C(=O)OC(C)C (stereo not drawn) [Propetamphos] | 50 µM | > 200 µM | 5.88 | 5.88 | 5.75 | 5.71 | 4.95 | 5.45 | 3.98 |
| CCCCCCC(C)OC(=O)COc1nc(F)c(Cl)c(N)c1Cl (stereo not drawn) [Fluroxypyr-meptyl] | 200 µM | 185 µM | 5.84 | 5.84 | 6.02 | 5.94 | 5.83 | 6.29 | 4.64 |
| NC(=O)Cn1c(=O)cc(CCN2CCN(c3nccc4sccc34)CC2)c2ccc(F)cc21 [Trelanserin] | 200 µM | > 200 µM | 5.9 | 5.78 | 5.75 | 5.81 | 5.71 | 5.7 | 5.54 |
| Cc1cc(SC2=C(O)C[C@@](CCc3ccc(N)cc3)(C(C)C)OC2=O)c(C(C)(C)C)cc1CO | 200 µM | 186 µM | 5.92 | 6.15 | 6.21 | 6.22 | 6.19 | 6.07 | 5.64 |
| C=CCCCCCCCCC(=O)O [10-Undecenoic acid] | 200 µM | > 200 µM | 5.77 | 6 | 5.9 | 5.88 | 5.76 | 5.8 | 5.62 |
| C1=Cc2cccc3cccc1c23 [Acenaphthylene] | 200 µM | > 200 µM | 5.93 | 5.96 | 5.94 | 5.98 | 5.92 | 5.83 | 5.37 |
| Clc1ccc(C(Cl)(Cl)Cl)cc1 [4-Chlorobenzotrichloride] | 50 µM | 112 µM | 5.94 | 5.93 | 5.97 | 5.9 | 5.65 | 4.93 | 3.11 |
| CC(C)CCCCCCOC(=O)C1CCCCC1C(=O)OCCCCCCC(C)C (stereo not drawn) | 200 µM | > 200 µM | 5.92 | 5.97 | 5.87 | 5.9 | 5.87 | 5.84 | 5.66 |
| CN(C)[C@@H]1C(=O)C(C(N)=O)=C(O)[C@@]2(O)C(=O)C3=C(O)c4c(O)cccc4[C@@](C)(O)[C@H]3C[C@@H]12 [Tetracycline] | 100 µM | 103 µM | 6.03 | 6.08 | 6.03 | 6.05 | 6.06 | 5.64 | 4.89 |
| C=CCc1ccc2c(c1)OCO2 [Safrole] | 200 µM | 188 µM | 6.12 | 6.08 | 5.92 | 6.02 | 5.96 | 6.05 | 5.62 |
| COc1cccc(C(=O)NN(C(=O)c2cc(C)cc(C)c2)C(C)(C)C)c1C [Methoxyfenozide] | 200 µM | 195 µM | 6.16 | 6.1 | 6.05 | 5.9 | 6 | 6.01 | 4.43 |
| CCO/N=C(\CC)C1=C(O)CC(c2c(C)cc(C)cc2C)CC1=O (stereo not drawn) [Tralkoxydim] | 200 µM | 109 µM | 5.85 | 5.93 | 5.9 | 6.14 | 6.08 | 5.93 | 5.48 |
| CC(C)(O)c1coc(S(=O)(=O)NC(=O)Nc2c3c(cc4c2CCC4)CCC3)c1 | 200 µM | 111 µM | 5.93 | 6.15 | 6.24 | 6.2 | 6.09 | 5.98 | 5.63 |
| O=C(CCCN1CCC(O)(c2ccc(Cl)cc2)CC1)c1ccc(F)cc1 [Haloperidol] | 10 µM | 43.3 µM | 5.95 | 5.85 | 5.93 | 5.66 | 4.99 | 4.71 | 4.44 |
| Nc1c(Cl)c(F)nc(OCC(=O)O)c1Cl [Fluroxypyr] | 200 µM | > 200 µM | 5.6 | 5.62 | 5.73 | 5.61 | 5.75 | 5.78 | 5.64 |
| CON(C)C(=O)Nc1ccc(Cl)c(Cl)c1 [Linuron] | 100 µM | 104 µM | 6.04 | 6.22 | 6.19 | 5.98 | 6.16 | 5.57 | 4.43 |
| Nc1nc(N)c2nc(CNc3ccc(C(=O)NC(CCC(=O)O)C(=O)O)cc3)cnc2n1 (stereo not drawn) [Aminofolic acid, 4-] | 200 µM | > 200 µM | 5.89 | 5.91 | 5.86 | 5.86 | 5.82 | 5.82 | 5.39 |
